Measured values from US9856218B2, “Inhibitors of PRMT5 and methods of their use” (Ohio State Innovation Foundation, priority 2013, dated 2018).

Columns and labels:
[1] = system: Mantle cell lymphoma cell line Jeko; experiment: MTS anti-proliferation assay; type: cell-based
Description: MTS proliferation assays were performed according the CellTiter 96™ Aqueous Cell Proliferation Assay Technical Bulletin (Promega, Madison, Wis.). 5×10^5 cells were plated in each well of a 96-well plate at 37° C. and assayed for proliferation at 24, 48, and 72 hr. Proliferation signal at 50% of control was used as IC50 for growth.
Following the synthesis of 14 compounds, the anti-proliferation and pro-apoptotic activities of those compounds was evaluated in Mantle cell lymphoma cell line Jeko. Replicate cultures of Jeko were incubated in DMSO and the compounds for 24, 48 and 72 hours. FITC-Annexin V-PI stained flow cytometry was used to detect the apoptotic population of cells (Table 4).

[2] = molecular target: T1, affinity-purified hSWI/SNF associated Fl-PRMT7 (Homo sapiens, UniProt Q9NVM4); experiment: Histone methyltransferase assay, [3H]SAM; type: biochemical; conditions: FIG. 33A
T1 construct: made in house
T1 sequence (Q9NVM4 whole entry): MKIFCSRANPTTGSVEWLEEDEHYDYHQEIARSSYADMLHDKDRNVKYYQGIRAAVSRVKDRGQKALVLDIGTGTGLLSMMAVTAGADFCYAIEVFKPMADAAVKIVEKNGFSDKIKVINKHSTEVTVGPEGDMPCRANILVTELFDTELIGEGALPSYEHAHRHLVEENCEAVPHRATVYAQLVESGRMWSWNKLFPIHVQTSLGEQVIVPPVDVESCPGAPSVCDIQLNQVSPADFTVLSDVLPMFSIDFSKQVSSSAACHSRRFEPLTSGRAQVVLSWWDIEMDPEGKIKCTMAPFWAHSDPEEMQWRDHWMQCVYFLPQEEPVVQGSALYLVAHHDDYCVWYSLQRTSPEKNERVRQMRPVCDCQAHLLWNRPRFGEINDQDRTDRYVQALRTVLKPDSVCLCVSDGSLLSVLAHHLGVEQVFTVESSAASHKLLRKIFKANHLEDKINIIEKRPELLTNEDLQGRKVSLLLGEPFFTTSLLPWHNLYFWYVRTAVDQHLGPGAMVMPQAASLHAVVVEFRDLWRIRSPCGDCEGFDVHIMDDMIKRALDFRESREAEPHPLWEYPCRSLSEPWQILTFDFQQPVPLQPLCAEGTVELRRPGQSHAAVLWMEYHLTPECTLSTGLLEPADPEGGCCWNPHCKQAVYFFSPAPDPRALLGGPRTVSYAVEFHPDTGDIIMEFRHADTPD
Description: (§1) Histone methylation was performed in the presence of DMSO, and 1-40 μM inhibitor compounds. […] After 1.5 h incubation at 30° C., reaction mixtures were spotted on Whatman P-81 filter paper, washed five times with 10 mL of […] sodium carbonate buffer (pH 9.0) to remove unincorporated [3H]SAM, and methylated peptides were detected by scintillation counting.
as §1, with “HLCL-32, HLCL-10, HLCL-61 and HLCL-64.” for “inhibitor compounds.”, “After a” for “After”, “C.” for “C.,”, “[^3H]SAM,” for “[3H]SAM,”

recombinant PRMT1 = molecular target: T2, recombinant PRMT1 (Rattus norvegicus, UniProt Q63009); experiment: Histone methyltransferase assay, [3H]SAM; type: biochemical
T2 construct: purchased Millipore 14-474
T2 sequence (Q63009 whole entry): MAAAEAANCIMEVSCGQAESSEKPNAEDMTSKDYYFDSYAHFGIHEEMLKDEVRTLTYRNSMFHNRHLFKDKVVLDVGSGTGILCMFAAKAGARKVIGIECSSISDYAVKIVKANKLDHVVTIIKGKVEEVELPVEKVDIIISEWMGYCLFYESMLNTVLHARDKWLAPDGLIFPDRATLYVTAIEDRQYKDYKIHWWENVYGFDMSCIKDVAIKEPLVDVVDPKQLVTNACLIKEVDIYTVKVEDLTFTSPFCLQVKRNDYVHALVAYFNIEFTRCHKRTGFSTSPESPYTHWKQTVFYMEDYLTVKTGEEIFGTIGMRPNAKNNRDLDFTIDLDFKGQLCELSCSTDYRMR
Description: as §1
as §1, with “HLCL-32, HLCL-10, HLCL-61 and HLCL-64.” for “inhibitor compounds.”, “After a” for “After”, “C.” for “C.,”, “[^3H]SAM,” for “[3H]SAM,”

recombinant PRMT4 = molecular target: T3, recombinant PRMT4 (Mus musculus, UniProt Q9WVG6); experiment: Histone methyltransferase assay, [3H]SAM; type: biochemical; conditions: FIG. 33A
T3 construct: purchased Millipore 14-575
T3 sequence (Q9WVG6 whole entry): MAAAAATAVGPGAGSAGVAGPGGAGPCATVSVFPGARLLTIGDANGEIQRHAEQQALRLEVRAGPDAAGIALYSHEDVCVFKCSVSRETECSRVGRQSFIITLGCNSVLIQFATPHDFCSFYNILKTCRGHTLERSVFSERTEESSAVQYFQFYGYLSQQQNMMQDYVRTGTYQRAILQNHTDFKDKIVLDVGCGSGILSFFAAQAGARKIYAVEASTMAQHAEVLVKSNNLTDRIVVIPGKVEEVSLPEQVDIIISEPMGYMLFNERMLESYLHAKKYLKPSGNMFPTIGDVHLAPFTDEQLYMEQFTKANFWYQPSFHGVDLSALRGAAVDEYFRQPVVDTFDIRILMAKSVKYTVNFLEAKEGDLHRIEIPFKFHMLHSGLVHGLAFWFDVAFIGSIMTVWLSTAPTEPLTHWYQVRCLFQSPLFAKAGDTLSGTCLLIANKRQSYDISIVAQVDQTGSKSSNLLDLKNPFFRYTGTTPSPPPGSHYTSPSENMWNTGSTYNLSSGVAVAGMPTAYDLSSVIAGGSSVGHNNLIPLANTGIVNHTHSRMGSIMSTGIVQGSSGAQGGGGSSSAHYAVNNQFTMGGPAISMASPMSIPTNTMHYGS
Description: as §1
as §1, with “HLCL-32, HLCL-10, HLCL-61 and HLCL-64.” for “inhibitor compounds.”, “After a” for “After”, “C.” for “C.,”, “[^3H]SAM,” for “[3H]SAM,”

[3] = system: AML cell lines (MV4-11 (FLT3-ITD) and Kasumi-1 (KITmut)); experiment: Apoptosis, AnnexinV and PI flow cytometry; type: cell-based; conditions: 25 and 50 μM for 48 hours
Description: Cells (1×10^6) were washed and passed through a […] filter (BD), then re-suspended in 200 μL binding buffer with or without 5 μL AnnexinV (for apoptosis detection) or CD11b (for maturation detection) antibody (BD Biosciences, Billerica, Mass.). After 15 min. of incubation cells were washed with PBS, re-suspended in 500 μL flow buffer and analyzed on a FACSCalibur cytometer (BD Biosciences). For apoptosis detection, 5 μL propidium iodide (PI) (BD Biosciences) was added to cell before running flow cytometry. Sorting for GFP-positive cells was carried out on BD FACS Aria instrument after filtering and washing cells 2× with ice cold PBS supplemented with 2% calf bovine serum and re-suspending in FACS buffer.
PRMT5 inhibition by C12 was also effective in promoting apoptosis and differentiation.
Referring to FIG. 36, a flow cytometry analysis of AML cell lines treated with PRMT5 inhibitor and stained for cell surface markers AnnexinV and PI indicates a dose-dependent increase in the percentage of apoptotic and dead cells when compared to DMSO-treated cells. Induction of programmed cell death was stronger in the FLT3-ITD AML cell line MV4-11.

[4] = system: FLT3 response element in THP-1 cells; experiment: FLT3-promoter-Luciferase reporter assay; type: cell-based
Description: Promoter region of FLT3 (SEQ ID NO. 1: […] […] […] […] […] […] […] […] […] […] […] […] […] […] CGCGAGGCGCGCCGCT.[…] […] […] […] […] […] […]) was cloned into pGL4.11 [luc2P] vector. THP-1 cells were transfected with empty vector or FLT3-promoter luciferase plasmid and Renilla in presence or absence of C12. Firefly luciferase and Renilla luciferase activity was measured using Dual-Luciferase Reporter Assay System (Promega).
A key regulator of FLT3 expression in AML has been previously identified: a transactivation complex composed of transcription factors SP1 and NFκB(p65) (Liu, S., et al. (2010) Cancer Cell 17, 333-347; Blum, W., et al. (2012) Blood 119, 6025-6031). […] The role of PRMT5 in recruitment and localization of these factors to regulatory region of FLT3 was then tested using a chromatin immunoprecipitation (ChIP) assay and antibodies specific for NFκB(p65), SP1 and primers designed to amplify predicted binding sites at the promoter region of FLT3 (Liu, S., et al. (2008) Blood 4, 2364-2373; Liu, S., et al. (2010) Cancer Cell 17, 333-347). […] PRMT5 was then overexpressed in MV4-11 and THP-1 cells, and the ChIP experiment repeated. […] Additionally, supporting a functional role for PRMT5 in modulating FLT3 activity, inhibition of PRMT5 following exposure to C12 disrupted the FLT3 response element (i.e. FLT3-promoter-Luciferase reporter) activities in THP-1 cells (FIG. 43B). […]

For `CCn1c2ccccc2c2cc(CNCc3ccccc3OC)ccc21` [HLCL-61], the IC50 ([1]; 24 h incubation) was 44 µM, the IC50 ([1]; 48 h incubation) was 29 µM and the IC50 ([1]; 72 h incubation) was 28 µM. The “effect on PRMT7 enzymatic activity” value [2] was “ineffectiveness”, the “inhibition of PRMT1 enzyme” value (recombinant PRMT1; 10 μM, FIG. 17B) was “this non-specific activity is lost” and the “inhibition of PRMT1 enzyme” value (recombinant PRMT1; 20 μM and above, FIG. 17A) was “non-specific inhibition”. The “effect on PRMT1 enzymatic activity” value (recombinant PRMT1; FIG. 33A) was “ineffectiveness”, the “effect on PRMT4 enzymatic activity” value (recombinant PRMT4) was “ineffectiveness” and the apoptosis [3] was “dose-dependent increase in apoptosis”. For the same compound, the “FLT3 response element (FLT3-promoter-Luciferase reporter) activities” value [4] was “disrupted”.
